Results: patent publication US9879003B2, “Host targeted inhibitors of dengue virus and other viruses” (priority 2012, dated 2018)
pEC50: −log10 of the molar value. “Also recorded” adds a separate entry of the source. Read-outs that look alike come from different tables or passages of the source.

Columns and labels:
[1] = tested on: DENV2-Fluc(WT) replicon RNA; experiment: DENV2-Fluc(WT) replicon translation, luciferase, Huh7 cells; type: cell-based, Dengue virus; conditions: 6 hours post-electroporation; QL compounds 2 μM, cycloheximide 30 μg/mL
[2] = tested on: DENV2-Fluc (GDV) replicon RNA; experiment: DENV2-Fluc(GDV) mutant replicon translation, luciferase, Huh7 cells; type: cell-based, Dengue virus; conditions: 6 hours post-electroporation; QL compounds 2 μM, cycloheximide 30 μg/mL
[3] = target: DENV RNA-dependent polymerase (Dengue virus type 2, UniProt P14340); conditions: Wu et al. 2002; cited from earlier work
[4] = tested on: DENV2 New Guinea C (DENV2-NGC); experiment: Viral yield reduction assay, DENV2-NGC in Huh7 cells, titration by focus forming assay (FFA); type: cell-based, Dengue virus
DENV2 virus [5] = experiment: QL-XII-47 biotin test, DENV2 in Huh7 cells, titration in FFU/ml; type: cell-based, Dengue virus; conditions: treated for 24 or 48 h
Huh7 cells = experiment: CellTiter-Glo luminescent cell viability assay (cytotoxicity); type: cell-based; conditions: 20 μM, the highest concentration tested
Procedure: As a positive control for cytotoxicity, some wells were supplemented with 0.1% saponin. The plates were incubated for 24 hours at 37° C., and the cell cytotoxicity was measured following the instructions of the CellTiter-Glo Luminescent cell viability assay (Promega G7570).

Kunjin virus = Kunjin virus yield reduction in Huh7 cells, plaque assay in BHK21 cells; type: cell-based; conditions: 2 μM
[6] = tested on: recombinant viral particles (RVP) with dengue structural proteins and West Nile virus reporter RNA; experiment: Single-cycle reporter viral particle (RVP) assay, Renilla luciferase, Huh7 cells; type: cell-based; conditions: entry and translation of subgenomic replicon RNA
DENV2 replicon = type: cell-based, Dengue virus; conditions: 2 μM added at 24 hours, read at 72 hours post-electroporation
[7] = tested on: DENV2 virus-like particles (VLPs); experiment: DENV virus-like particle (VLP) expression and secretion, Huh7 cells, Western blot; type: cell-based, Dengue virus; conditions: 3 μM, supernatants 24 hours post-treatment
Procedure: The plasmid used for virus-like particles (VLP) production was provided by Stephen Harrison. Briefly, the codon optimized sequence of DENV2-FGA/02 prM-E (Wang et al., PLoS ONE (2009) 4:e8325) was introduced in the pCDNA3.1 vector. To produce VLPs, Huh7 cells were transfected with pCDNA3.1-D2.VLP using Lipofectamine 2000 (Life Technologies 11668-019) according to the manufacturer's instructions. […] The supernatants were collected at 24 hours post-treatment and precipitated for 3 hours at 4° C. by the addition of 0.075% of PEG 8000. The VLPs were pelleted by centrifugation at 10,000 g for 15 min at 4° C. The pellet was suspended in 200 μl of 1×TNE (10 mM Tris-HCl pH 7.5, 2.5 mM EDTA, 50 mM NaCl), loaded over a sucrose cushion (800 μl of 12.5% sucrose in 1×TNE), and centrifuged at 100,000 g for 2 h at 4° C. The supernatants were discarded, and the purified VLPs were suspended in 50 μl of 1×TNE. 25 μl of purified VLPs were analyzed for DENV2 E protein expression by Western blotting using 4G2 antibody. An equal amount of purified VLPs was loaded on a SDS-PAGE and submitted to Coomassie staining to control for equal loading of the VLPs-enriched supernatants. Steady state expression of DENV2 E protein in the cell lysates was analyzed by Western blotting using 4G2 antibody.

[8] = tested on: encephalomyocarditis virus (EMCV) IRES; type: cell-based
VSV = type: cell-based, vesicular stomatitis virus
[9] = tested on: VSV pseudotyped with rabies virus glycoprotein (RABV); type: cell-based, vesicular stomatitis virus
[10] = tested on: VSV pseudotyped with Ebola glycoprotein (EboV); type: cell-based, vesicular stomatitis virus
[11] = tested on: human cytomegalovirus (HCMV); type: cell-based
[12] = tested on: herpes simplex virus 1 (HSV-1); type: cell-based
poliovirus = type: cell-based
[13] = tested on: Japanese Encephalitis virus (JEV); type: cell-based
Junin virus = type: cell-based
influenza virus = type: cell-based
vaccinia virus = type: cell-based
[14] = tested on: Ebola glycoprotein (EBOV); type: cell-based, Ebola virus
Marburg virus (MARV) = type: cell-based
Junin virus (JUNV) = type: cell-based
Lassa fever virus (LASV) = type: cell-based
[15] = tested on: Venezuelan equine encephalitis virus (VEEV); type: cell-based
[16] = tested on: Rift Valley fever virus (RVFV); type: cell-based
[17] = tested on: vesicular stomatitis virus (VSV); type: cell-based
poliovirus Type 1 (PV1) = type: cell-based
DENV2 virus [18] = experiment: DENV2 viral production time course in Huh7 cells (FFU/ml, RTqPCR, Western blot); type: cell-based, Dengue virus; conditions: 4 μM
DENV1 WP74 = experiment: Yield reduction assay, DENV1-WP74 in Huh7 cells, FFA in Vero cells; conditions: Huh7 MOI 1, FFA in Vero cells
DENV3 THD3 = experiment: Yield reduction assay, DENV3-THD3 in Huh7 cells, FFA in Vero cells; conditions: Huh7 MOI 1, FFA in Vero cells
DENV4 TVP360 = experiment: Yield reduction assay, DENV4-TVP360 in Huh7 cells, FFA in Vero cells; conditions: Huh7 MOI 1, FFA in Vero cells
DENV2-NGC genomic RNA = experiment: Time course of intracellular DENV genomic RNA by qRT-PCR and in situ hybridization; conditions: 2 μM, MOI 1, normalized to GAPDH

## C[C@@H]1C[C@@H]([C@H](O)CC2CC(=O)NC(=O)C2)C(=O)[C@@H](C)C1 [CHX, cycloheximide, reference compound]
[1]
  luciferase activity (translation of input RNA): Reduced luciferase activity
[2]
  luciferase activity (translation of input RNA): Reduced luciferase activity

## C[C@@]1(O)[C@H](O)[C@@H](CO)O[C@H]1n1ccc2c(N)ncnc21 [Compound 7-DMA]
[3]
  pEC50: 4.82

## C=CC(=O)N1CCC[C@@H](n2nc(-c3ccc(Oc4ccccc4)cc3)c3c(N)ncnc32)C1 [PCI-32765, reference compound]
[4]; added 1 hour post-infection, MOI 1, FFA at 24 h post-infection
  effect on DENV yield: not inhibited; also recorded: no effect

## CN(C/C=C/C(=O)N1CCc2ccc(-n3c(=O)ccc4cnc5ccc(-c6cnn(C)c6)cc5c43)cc21)CCNC(=O)NCCOCCOCCOCCNC(=O)CCCC1SCC2NC(=O)NC21 (stereo not drawn) [QL-XII-47-biotin]
DENV2 virus [5]
  inhibitory activity against dengue virus: significantly reduced inhibitory activity

## C=CC(=O)N1CCc2ccc(-n3c(=O)ccc4cnc5ccc(-c6cnn(C)c6)cc5c43)cc21 [QL-XII-47]
[4]; DENV2 NGC, Huh7 MOI 1, FFA in Vero cells
  activity against strain: potent activity
[4]; Dengue virus, DENV2, Huh-7
  EC90: 0.4 µM
[4]; at single-digit micromolar concentrations
  decrease in DENV2 New Guinea C (DENV2-NGC) yield / drop in viral titer: > 3 log10 unit
[4]; cells pretreated for 6 hours and washed prior to infection
  inhibition of DENV after pretreatment of cells: potent inhibition
[4]; time-of-addition experiment
  time of addition giving maximal anti-DENV effect: 0-3 hours post-infection
Huh7 cells
  cytotoxicity: no cytotoxicity; also recorded: not observed
Kunjin virus
  reduction in Kunjin virus yield: greater than 10 fold
[6]
  inhibition in single-cycle reporter virus assay: potent inhibitory activity
DENV2 replicon
  activity on electroporated subgenomic reporter replicon: does not have activity
[7]
  yield of virus-like particles (VLPs): did not inhibit
[1]
  luciferase activity (translation of input RNA): Reduced luciferase activity
[2]
  luciferase activity (translation of input RNA): Reduced luciferase activity
[8]
  EMCV IRES-dependent translation: reduces translation; also recorded: inhibited
VSV
  inhibition of infection: inhibits infection
[9]
  inhibition of infection: inhibits infection
[10]
  inhibition of infection: inhibits infection
[11]
  inhibition of reporter HCMV infection: inhibits
[12]
  inhibition of infection and plaque formation: inhibits
  plaques detected: no plaques were detected
poliovirus
  inhibition of infection and viral gene expression: inhibits
[13]
  inhibition of cytopathic effects: modest inhibitor
Junin virus
  inhibition of cytopathic effects: modest inhibitor
Influenza virus
  activity against virus: no activity
Vaccinia virus
  activity against virus: no activity
[14]
  inhibitory activity: inhibitory activity
Marburg virus (MARV)
  inhibitory activity: inhibitory activity
Junin virus (JUNV)
  inhibitory activity: inhibitory activity
Lassa fever virus (LASV)
  inhibitory activity: inhibitory activity
[15]
  inhibitory activity: inhibitory activity
[16]
  inhibitory activity: inhibitory activity
[17]
  inhibition of VSV: inhibited
Poliovirus Type 1 (PV1)
  inhibition of PV1: inhibited
DENV2 virus [18]
  expression of DENV proteins NS3 and core (Western blot): reduced steady-state expression
DENV2 virus [18]; after about 12 hours of infection
  DENV2 viral production (FFU/ml, viral count): inhibited
Vero
  cytotoxicity: not observed
BHK21
  cytotoxicity: not observed
3T3
  cytotoxicity: not observed
Hela
  cytotoxicity: single-digit micromolar cytotoxicity
293
  cytotoxicity: single-digit micromolar cytotoxicity
DENV1 WP74
  activity against strain: potent activity
DENV3 THD3
  activity against strain: potent activity
DENV4 TVP360
  activity against strain: potent activity
DENV2-NGC genomic RNA
  DENV genomic RNA copy number over time: relatively unchanged copy number

## C=CC(=O)Nc1cc(-n2c(=O)ccc3cnc4ccc(-c5cnn(C)c5)cc4c32)ccc1C [QL-XII-56]
[1]
  luciferase activity (translation of input RNA): Reduced luciferase activity
[2]
  luciferase activity (translation of input RNA): Reduced luciferase activity
[8]
  EMCV IRES-dependent translation: inhibited
[14]
  inhibitory activity: inhibitory activity
Marburg virus (MARV)
  inhibitory activity: inhibitory activity
Junin virus (JUNV)
  inhibitory activity: inhibitory activity
Lassa fever virus (LASV)
  inhibitory activity: inhibitory activity
[15]
  inhibitory activity: inhibitory activity
[16]
  inhibitory activity: inhibitory activity
[17]
  inhibition of VSV: inhibited
Poliovirus Type 1 (PV1)
  inhibition of PV1: inhibited

## Nc1nc2c(ncn2COCCO)c(=O)[nH]1 [acyclovir, reference compound]
[12]; 8 μM
  plaques detected: no plaques were detected
